Test results reported in US20250136595A1, “ACYLATED HETEROCYCLIC QUINAZOLINE DERIVATIVES AS INHIBITORS OF ERBB2” (Enliven Inc., priority 2022, published 2025).

Assays:
Ba/F3 ERBB2 YVMA = Ba/F3 ERBB2 YVMA (Homo sapiens, UniProt P04626, DUP772-775, cells depend on it); test: Cell viability assay (CellTiter Glo) in Ba/F3 cells engineered to express ERBB2 YVMA; assay type: cell-based, mouse; details: Ba/F3 cells expressing human ERBB2 YVMA mutant, 72 hours, % viability, read-out: Ba/F3 ERBB2 YVMA IC50
Method in brief: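 IL-3-independent mouse Ba/F3 line stably transduced with human ERBB2 YVMA, seeded at 3000 cells/well, exposed to serially diluted compound (≤0.1% DMSO) for 72 h at 37° C. ATP read by CellTiter Glo luminescence, normalised to DMSO and media-only controls; sigmoidal nonlinear regression fit.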

[1] = target: T1, phosphorylated ERBB2 (pERBB2) (Homo sapiens, UniProt P04626); test: Detection of phosphorylated ERBB2 (pERBB2) by ELISA in BT-474 cells; assay type: cell-based; details: four hour incubation with compound
T1 construct: endogenous in cells; host or cells: BT-474
Method in brief: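 BT-474 cells treated 4 h at 37 °C, 5% CO2 with four-fold dilutions (10 μM to 0.01 nM final). Lysates analysed by ELISA for pERBB2, TMB read at OD 450 nm. % relative activity normalised to no-cell (low) and 0.1% DMSO-treated (high) controls.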

[2] = target: T2, phosphorylated EGFR (pEGFR) (Homo sapiens, UniProt P00533); test: Detection of phosphorylated EGFR (pEGFR) in EGF-stimulated A431 cells (AlphaLISA); assay type: cell-based; details: A431 cells (10% FBS), 4 hours incubation, EGF 30 ng/mL for 10 minutes
T2 construct: performed to measure phosphorylated EGFR levels using A431 cells; endogenous in cells; host or cells: A431
Method in brief: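 Cells in 10% FBS treated with compound 4 h at 37° C., then stimulated 10 min with 30 ng/mL EGF, lysed, and pEGFR measured by AlphaLISA. Inhibition normalized to DMSO and staurosporine controls; IC50 from four-parameter logistic fit.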

T1 sequence (P04626 23-1255): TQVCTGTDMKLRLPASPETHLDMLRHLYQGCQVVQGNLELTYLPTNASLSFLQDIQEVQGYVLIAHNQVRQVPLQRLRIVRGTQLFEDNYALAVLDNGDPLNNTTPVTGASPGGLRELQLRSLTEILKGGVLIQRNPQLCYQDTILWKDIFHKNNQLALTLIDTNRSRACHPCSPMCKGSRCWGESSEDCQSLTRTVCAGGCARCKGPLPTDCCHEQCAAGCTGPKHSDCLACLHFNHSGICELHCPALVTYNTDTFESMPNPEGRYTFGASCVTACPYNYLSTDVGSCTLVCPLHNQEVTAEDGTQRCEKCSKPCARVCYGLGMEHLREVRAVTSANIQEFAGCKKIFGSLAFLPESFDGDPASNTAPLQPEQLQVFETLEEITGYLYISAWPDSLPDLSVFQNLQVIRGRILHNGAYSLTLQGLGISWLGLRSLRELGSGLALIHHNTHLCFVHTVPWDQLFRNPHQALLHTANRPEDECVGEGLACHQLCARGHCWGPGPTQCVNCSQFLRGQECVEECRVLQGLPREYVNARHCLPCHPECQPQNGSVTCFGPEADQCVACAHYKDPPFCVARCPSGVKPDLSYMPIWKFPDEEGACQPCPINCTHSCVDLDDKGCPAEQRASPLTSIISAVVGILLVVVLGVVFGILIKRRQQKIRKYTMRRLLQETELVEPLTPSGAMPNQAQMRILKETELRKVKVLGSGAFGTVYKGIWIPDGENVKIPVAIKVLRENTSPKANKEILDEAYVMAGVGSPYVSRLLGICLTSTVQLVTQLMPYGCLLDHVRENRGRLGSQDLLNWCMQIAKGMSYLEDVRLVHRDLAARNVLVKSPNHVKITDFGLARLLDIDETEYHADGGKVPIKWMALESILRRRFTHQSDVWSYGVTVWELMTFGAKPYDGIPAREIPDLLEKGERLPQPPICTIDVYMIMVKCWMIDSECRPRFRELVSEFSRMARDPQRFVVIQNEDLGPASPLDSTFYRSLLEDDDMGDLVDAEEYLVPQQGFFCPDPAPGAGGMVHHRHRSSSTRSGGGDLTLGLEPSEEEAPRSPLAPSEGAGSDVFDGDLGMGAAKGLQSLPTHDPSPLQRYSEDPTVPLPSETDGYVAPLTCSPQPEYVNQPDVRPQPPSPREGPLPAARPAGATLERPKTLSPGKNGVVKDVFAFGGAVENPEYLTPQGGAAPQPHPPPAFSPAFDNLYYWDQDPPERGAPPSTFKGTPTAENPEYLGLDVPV
T2 sequence (P00533 25-1210): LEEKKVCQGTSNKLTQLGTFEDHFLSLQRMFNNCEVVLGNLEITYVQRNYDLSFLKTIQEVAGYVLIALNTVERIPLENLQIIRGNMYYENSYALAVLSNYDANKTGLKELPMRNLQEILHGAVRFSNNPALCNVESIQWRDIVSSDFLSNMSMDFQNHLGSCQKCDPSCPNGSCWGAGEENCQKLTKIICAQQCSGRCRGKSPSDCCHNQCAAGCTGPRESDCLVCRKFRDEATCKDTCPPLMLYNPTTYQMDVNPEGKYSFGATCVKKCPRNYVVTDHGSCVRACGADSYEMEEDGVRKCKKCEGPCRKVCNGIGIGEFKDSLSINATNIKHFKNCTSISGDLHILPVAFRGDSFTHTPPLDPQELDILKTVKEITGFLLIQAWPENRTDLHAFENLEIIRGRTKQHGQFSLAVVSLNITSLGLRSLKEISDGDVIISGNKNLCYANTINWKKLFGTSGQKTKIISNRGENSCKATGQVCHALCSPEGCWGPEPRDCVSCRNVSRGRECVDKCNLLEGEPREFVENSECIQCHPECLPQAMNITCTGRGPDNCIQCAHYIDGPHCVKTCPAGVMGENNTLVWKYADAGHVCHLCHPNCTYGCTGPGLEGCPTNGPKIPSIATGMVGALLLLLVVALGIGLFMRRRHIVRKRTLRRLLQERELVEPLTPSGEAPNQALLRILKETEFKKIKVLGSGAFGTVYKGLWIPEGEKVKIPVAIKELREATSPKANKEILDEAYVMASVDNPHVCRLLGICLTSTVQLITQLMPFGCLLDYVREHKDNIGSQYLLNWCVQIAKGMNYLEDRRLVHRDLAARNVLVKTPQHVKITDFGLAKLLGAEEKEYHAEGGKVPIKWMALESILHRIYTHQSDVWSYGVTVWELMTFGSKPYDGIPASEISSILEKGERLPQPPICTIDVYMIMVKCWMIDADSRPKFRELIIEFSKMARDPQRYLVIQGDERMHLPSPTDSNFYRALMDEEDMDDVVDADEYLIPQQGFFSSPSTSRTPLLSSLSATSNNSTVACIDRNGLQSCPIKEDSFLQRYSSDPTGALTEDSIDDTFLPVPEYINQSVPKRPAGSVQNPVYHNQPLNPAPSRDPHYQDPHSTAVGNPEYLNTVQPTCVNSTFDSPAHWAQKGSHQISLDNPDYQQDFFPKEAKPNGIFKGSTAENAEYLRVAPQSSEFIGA
Ba/F3 ERBB2 YVMA, sequence (P04626 with tags, fused parts or gaps DUP772-775): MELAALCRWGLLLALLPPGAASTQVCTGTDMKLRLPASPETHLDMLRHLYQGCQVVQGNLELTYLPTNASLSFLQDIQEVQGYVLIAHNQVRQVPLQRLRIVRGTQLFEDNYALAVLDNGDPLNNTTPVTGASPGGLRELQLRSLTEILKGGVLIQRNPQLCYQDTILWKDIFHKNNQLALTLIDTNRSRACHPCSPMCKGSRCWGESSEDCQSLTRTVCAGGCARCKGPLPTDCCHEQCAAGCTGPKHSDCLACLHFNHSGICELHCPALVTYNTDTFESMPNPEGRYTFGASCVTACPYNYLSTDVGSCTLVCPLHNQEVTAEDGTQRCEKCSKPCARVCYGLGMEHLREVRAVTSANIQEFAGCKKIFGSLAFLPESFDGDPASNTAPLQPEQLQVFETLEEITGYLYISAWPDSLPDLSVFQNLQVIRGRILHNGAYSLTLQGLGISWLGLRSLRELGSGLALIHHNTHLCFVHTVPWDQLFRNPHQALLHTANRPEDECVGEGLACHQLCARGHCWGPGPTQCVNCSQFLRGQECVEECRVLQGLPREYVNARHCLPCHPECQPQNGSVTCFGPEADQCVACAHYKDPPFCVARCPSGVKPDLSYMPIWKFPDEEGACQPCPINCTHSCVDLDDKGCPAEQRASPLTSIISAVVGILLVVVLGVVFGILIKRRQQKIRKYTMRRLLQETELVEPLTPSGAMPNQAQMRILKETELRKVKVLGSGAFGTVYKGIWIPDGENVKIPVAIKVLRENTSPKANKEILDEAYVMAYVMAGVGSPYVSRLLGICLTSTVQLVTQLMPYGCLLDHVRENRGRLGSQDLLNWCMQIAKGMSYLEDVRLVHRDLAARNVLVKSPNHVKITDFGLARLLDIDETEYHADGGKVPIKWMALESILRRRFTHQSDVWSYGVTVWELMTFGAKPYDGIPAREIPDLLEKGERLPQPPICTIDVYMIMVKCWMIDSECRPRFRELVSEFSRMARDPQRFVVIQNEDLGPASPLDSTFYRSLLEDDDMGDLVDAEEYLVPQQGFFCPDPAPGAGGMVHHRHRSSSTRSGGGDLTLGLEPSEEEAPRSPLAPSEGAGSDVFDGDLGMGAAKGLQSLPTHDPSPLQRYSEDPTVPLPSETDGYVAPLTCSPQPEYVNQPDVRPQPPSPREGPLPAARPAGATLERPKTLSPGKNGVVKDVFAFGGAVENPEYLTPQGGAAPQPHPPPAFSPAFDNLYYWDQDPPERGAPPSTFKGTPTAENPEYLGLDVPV

IC50 [1] | IC50 [2] | Structure (SMILES) | GI50 (Ba/F3 ERBB2 YVMA)
254 nM | > 10000 nM | C=CC(=O)N1[C@H](C)CN(c2ccc3ncnc(Nc4ccc(Oc5ccn6ncnc6c5)c(C)c4)c3n2)C[C@H]1C [Compound 61, 1-[(2R,6R)-2,6-dimethyl-4-{4-[(3-methyl-4-{[1,2,4]triazolo[1,5-a]pyridin-7-yloxy}phenyl)amino]pyrido[3,2-d]pyrimidin-6-yl}piperazin-1-yl]prop-2-en-1-one] | > 500 nM
46.9 nM | > 10000 nM | C=CC(=O)N1CCN(c2ccc3ncnc(Nc4ccc(Cc5ccn6ncnc6c5)c(C)c4)c3c2F)C[C@H]1C [Compound 62, 1-[(2R)-4-{5-fluoro-4-[(3-methyl-4-{[1,2,4]triazolo[1,5-a]pyridin-7-ylmethyl}phenyl)amino]quinazolin-6-yl}-2-methylpiperazin-1-yl]prop-2-en-1-one] | 22.7 nM
21.4 nM | 5500 nM | C=CC(=O)N1CCN(c2ccc3ncnc(Nc4ccc(Oc5ccn6ncnc6c5)c(C)c4)c3c2F)C[C@H]1C [Compound 63, (R)-1-(4-(4-((4-([1,2,4]triazolo[1,5-a]pyridin-7-yloxy)-3-methylphenyl)amino)-5-fluoroquinazolin-6-yl)-2-methylpiperazin-1-yl)prop-2-en-1-one] | 10.5 nM
38.6 nM | 2520 nM | C=CC(=O)N1CCN(c2ccc3ncnc(Nc4ccc(Oc5ccc6c(c5)ncn6C)c(C)c4)c3c2F)C[C@H]1C [Compound 64, 1-[(2R)-4-[5-fluoro-4-({3-methyl-4-[(1-methyl-1,3-benzodiazol-5-yl)oxy]phenyl}amino)quinazolin-6-yl]-2-methylpiperazin-1-yl]prop-2-en-1-one] | 12.4 nM
29.3 nM | 2790 nM | CC#CC(=O)N1CCN(c2ccc3ncnc(Nc4ccc(Oc5ccc6c(c5)ncn6C)c(C)c4)c3n2)C[C@H]1C [Compound 65, 1-[(2R)-2-methyl-4-[4-({3-methyl-4-[(1-methyl-1,3-benzodiazol-5-yl)oxy]phenyl}amino)pyrido[3,2-d]pyrimidin-6-yl]piperazin-1-yl]but-2-yn-1-one] | 4.38 nM
18 nM | 9020 nM | C=CC(=O)N1CCN(c2ccc3ncnc(Nc4ccc(Cc5ccn6ncnc6c5)c(C)c4)c3n2)[C@@H](C)C1 [Compound 66, (S)-1-(4-(4-((4-([1,2,4]triazolo[1,5-a]pyridin-7-ylmethyl)-3-methylphenyl)amino)pyrido[3,2-d]pyrimidin-6-yl)-3-methylpiperazin-1-yl)prop-2-en-1-one] | 12.5 nM
28.2 nM | 2490 nM | C=CC(=O)N1CCN(c2ccc3ncnc(Nc4ccc(Oc5ccc6c(c5)ncn6C)c(C)c4)c3n2)[C@@H](C)C1 [Compound 67, 1-[(3S)-3-methyl-4-[4-({3-methyl-4-[(1-methyl-1,3-benzodiazol-5-yl)oxy]phenyl}amino)pyrido[3,2-d]pyrimidin-6-yl]piperazin-1-yl]prop-2-en-1-one] | 13.9 nM
44.8 nM | 2570 nM | C=CC(=O)N1CCN(c2ccc3ncnc(Nc4ccc(Cc5ccc6c(c5)ncn6C)c(C)c4)c3n2)[C@@H](C)C1 [Compound 68, (S)-1-(3-methyl-4-(4-((3-methyl-4-((1-methyl-1H-benzo[d]imidazol-5-yl)methyl)phenyl)amino)pyrido[3,2-d]pyrimidin-6-yl)piperazin-1-yl)prop-2-en-1-one] | 14.7 nM
59.6 nM | > 10000 nM | C=CC(=O)N1CCN(c2cc3c(Nc4ccc(Oc5ccn6ncnc6c5)c(C)c4)ncnc3cn2)[C@@H](C)C1 [Compound 69, (S)-1-(4-(4-((4-([1,2,4]triazolo[1,5-a]pyridin-7-yloxy)-3-methylphenyl)amino)pyrido[3,4-d]pyrimidin-6-yl)-3-methylpiperazin-1-yl)prop-2-en-1-one] | 155 nM
